Measured values reported in ChEMBL document CHEMBL5143587, “Antitumor Effect of Manool in a Murine Melanoma Model” (J Nat Prod, 2022).
The source made the active and inactive calls. The calls are words filed in the database; no cut-off is given here.

Key:
[1] = Genotoxicity in C57BL/6 mouse xenografted with mouse B16-F10 cells assessed as micronucleated polychromatic erythrocytes frequency in bone marrow cells at 40 mg/kg, ip for consecutive 5 days (reference value: 8.00); assay type: toxicity, organism-based; settings: in vivo, 120 h, time 5 day
[2] = Toxicity in C57BL/6 mouse xenografted with mouse B16-F10 cells assessed as change in heart weight at 20 to 40 mg/kg, po administered once daily for consecutive 5 days relative to control; assay type: organism-based; settings: in vivo, 120 h, dose 20-40 mg/kg, time 5 day
[3] = Toxicity in C57BL/6 mouse xenografted with mouse B16-F10 cells assessed as reduction in spleen weight at 20 mg/kg, ip administered once daily for consecutive 5 days; assay type: organism-based; settings: in vivo, 120 h, time 5 day
[4] = Toxicity in C57BL/6 mouse xenografted with mouse B16-F10 cells assessed as change in kidney weight at 20 to 40 mg/kg, po administered once daily for consecutive 5 days relative to control; assay type: organism-based; settings: in vivo, 120 h, dose 20-40 mg/kg, time 5 day
[5] = Toxicity in C57BL/6 mouse xenografted with mouse B16-F10 cells assessed as change in heart weight at 20 to 40 mg/kg, sc administered once daily for consecutive 5 days relative to control; assay type: organism-based; settings: in vivo, 120 h, dose 20-40 mg/kg, time 5 day
[6] = Toxicity in C57BL/6 mouse xenografted with mouse B16-F10 cells assessed as splenomegaly at 40 mg/kg, ip administered once daily for consecutive 5 days; assay type: organism-based; settings: in vivo, 120 h, time 5 day
[7] = Genotoxicity in C57BL/6 mouse xenografted with mouse B16-F10 cells assessed as ratio of polychromatic erythrocytes to total erythrocytes in bone marrow cells at 20 mg/kg, sc for consecutive 5 days (reference value: 0.60 +/-0.01); assay type: toxicity, organism-based; settings: in vivo, 120 h, time 5 day
[8] = Toxicity in C57BL/6 mouse xenografted with mouse B16-F10 cells assessed as reduction in spleen weight at 20 mg/kg, sc administered once daily for consecutive 5 days; assay type: organism-based; settings: in vivo, 120 h, time 5 day
[9] = Toxicity in C57BL/6 mouse xenografted with mouse B16-F10 cells assessed as change in lung weight at 20 to 40 mg/kg, sc administered once daily for consecutive 5 days relative to control; assay type: organism-based; settings: in vivo, 120 h, dose 20-40 mg/kg, time 5 day
[10] = Toxicity in C57BL/6 mouse xenografted with mouse B16-F10 cells assessed as reduction in spleen weight at 20 mg/kg, po administered once daily for consecutive 5 days; assay type: organism-based; settings: in vivo, 120 h, time 5 day
[11] = Genotoxicity in C57BL/6 mouse xenografted with mouse B16-F10 cells assessed as micronucleated polychromatic erythrocytes frequency in bone marrow cells at 20 mg/kg, po for consecutive 5 days (reference value: 6.00 +/-1.00); assay type: toxicity, organism-based; settings: in vivo, 120 h, time 5 day
[12] = Genotoxicity in C57BL/6 mouse xenografted with mouse B16-F10 cells assessed as ratio of polychromatic erythrocytes to total erythrocytes in bone marrow cells at 40 mg/kg, sc for consecutive 5 days (reference value: 0.60 +/-0.01); assay type: toxicity, organism-based; settings: in vivo, 120 h, time 5 day
[13] = Toxicity in C57BL/6 mouse xenografted with mouse B16-F10 cells assessed as body weight loss at 20 mg/kg, po administered once daily for consecutive 5 days in presence of cisplatin relative to control; assay type: organism-based; settings: in vivo, 120 h, time 5 day
[14] = Toxicity in C57BL/6 mouse xenografted with mouse B16-F10 cells assessed as change in body weight at 20 to 40 mg/kg, sc administered once daily for consecutive 5 days; assay type: organism-based; settings: in vivo, 120 h, dose 20-40 mg/kg, time 5 day
[15] = Toxicity in C57BL/6 mouse xenografted with mouse B16-F10 cells assessed as splenomegaly at 40 mg/kg, sc administered once daily for consecutive 5 days; assay type: organism-based; settings: in vivo, 120 h, time 5 day
[16] = Genotoxicity in C57BL/6 mouse xenografted with mouse B16-F10 cells assessed as micronucleated polychromatic erythrocytes frequency in bone marrow cells at 40 mg/kg, sc for consecutive 5 days (reference value: 10.00 +/-2.00); assay type: toxicity, organism-based; settings: in vivo, 120 h, time 5 day
[17] = Toxicity in C57BL/6 mouse xenografted with mouse B16-F10 cells assessed as change in kidney weight at 20 to 40 mg/kg, ip administered once daily for consecutive 5 days relative to control; assay type: organism-based; settings: in vivo, 120 h, dose 20-40 mg/kg, time 5 day
[18] = Genotoxicity in C57BL/6 mouse xenografted with mouse B16-F10 cells assessed as ratio of polychromatic erythrocytes to total erythrocytes in bone marrow cells at 20 mg/kg, po for consecutive 5 days (reference value: 0.90 +/-0.04); assay type: toxicity, organism-based; settings: in vivo, 120 h, time 5 day
[19] = Toxicity in C57BL/6 mouse xenografted with mouse B16-F10 cells assessed as change in heart weight at 20 to 40 mg/kg, ip administered once daily for consecutive 5 days relative to control; assay type: organism-based; settings: in vivo, 120 h, dose 20-40 mg/kg, time 5 day
B16-F10 [20] = assay: Antitumor activity against mouse B16-F10 cells bearing C57BL/6 mouse assessed as reduction in tumor weight at 20 mg/kg, sc administered once daily for consecutive 5 days relative to control (reference value: 50.7%); assay type: functional; parameters: scale not given: the % may be the effect or the level left; settings: time 5 day
[21] = Genotoxicity in C57BL/6 mouse xenografted with mouse B16-F10 cells assessed as micronucleated polychromatic erythrocytes frequency in bone marrow cells at 40 mg/kg, po for consecutive 5 days (reference value: 6.00 +/-1.00); assay type: toxicity, organism-based; settings: in vivo, 120 h, time 5 day
[22] = Toxicity in C57BL/6 mouse xenografted with mouse B16-F10 cells assessed as change in body weight at 20 to 40 mg/kg, po administered once daily for consecutive 5 days; assay type: organism-based; settings: in vivo, 120 h, dose 20-40 mg/kg, time 5 day
[23] = Toxicity in C57BL/6 mouse xenografted with mouse B16-F10 cells assessed as change in kidney weight at 20 to 40 mg/kg, sc administered once daily for consecutive 5 days relative to control; assay type: organism-based; settings: in vivo, 120 h, dose 20-40 mg/kg, time 5 day
[24] = Genotoxicity in C57BL/6 mouse xenografted with mouse B16-F10 cells assessed as micronucleated polychromatic erythrocytes frequency in bone marrow cells at 20 mg/kg, ip for consecutive 5 days (reference value: 8.00); assay type: toxicity, organism-based; settings: in vivo, 120 h, time 5 day
[25] = Toxicity in C57BL/6 mouse xenografted with mouse B16-F10 cells assessed as splenomegaly at 40 mg/kg, po administered once daily for consecutive 5 days; assay type: organism-based; settings: in vivo, 120 h, time 5 day
B16-F10 [26] = assay: Antitumor activity against mouse B16-F10 cells bearing C57BL/6 mouse assessed as reduction in tumor weight at 40 mg/kg, po administered once daily for consecutive 5 days relative to control; assay type: functional; parameters: scale not given: the % may be the effect or the level left; settings: time 5 day
B16-F10 [27] = assay: Antitumor activity against mouse B16-F10 cells bearing C57BL/6 mouse assessed as reduction in tumor weight at 20 mg/kg, ip administered once daily for consecutive 5 days relative to control (reference value: 71.1%); assay type: functional; parameters: scale not given: the % may be the effect or the level left; settings: time 5 day
[28] = Toxicity in C57BL/6 mouse xenografted with mouse B16-F10 cells assessed as change in lung weight at 20 to 40 mg/kg, po administered once daily for consecutive 5 days relative to control; assay type: organism-based; settings: in vivo, 120 h, dose 20-40 mg/kg, time 5 day
B16-F10 [29] = assay: Antitumor activity against mouse B16-F10 cells bearing C57BL/6 mouse assessed as reduction in tumor weight at 40 mg/kg, ip administered once daily for consecutive 5 days relative to control (reference value: 71.1%); assay type: functional; parameters: scale not given: the % may be the effect or the level left; settings: time 5 day
[30] = Toxicity in C57BL/6 mouse xenografted with mouse B16-F10 cells assessed as change in body weight at 20 to 40 mg/kg, ip administered once daily for consecutive 5 days; assay type: organism-based; settings: in vivo, 120 h, dose 20-40 mg/kg, time 5 day
B16-F10 [31] = assay: Antitumor activity against mouse B16-F10 cells bearing C57BL/6 mouse assessed as reduction in tumor weight at 20 mg/kg, po administered once daily for consecutive 5 days relative to control; assay type: functional; parameters: scale not given: the % may be the effect or the level left; settings: time 5 day
[32] = Genotoxicity in C57BL/6 mouse xenografted with mouse B16-F10 cells assessed as ratio of polychromatic erythrocytes to total erythrocytes in bone marrow cells at 40 mg/kg, ip for consecutive 5 days (reference value: 0.91+/-0.01); assay type: toxicity, organism-based; settings: in vivo, 120 h, time 5 day
[33] = Genotoxicity in C57BL/6 mouse xenografted with mouse B16-F10 cells assessed as ratio of polychromatic erythrocytes to total erythrocytes in bone marrow cells at 20 mg/kg, ip for consecutive 5 days (reference value: 0.91+/-0.01); assay type: toxicity, organism-based; settings: in vivo, 120 h, time 5 day
B16-F10 [34] = assay: Antitumor activity against mouse B16-F10 cells bearing C57BL/6 mouse assessed as reduction in mitotic figures at 40 mg/kg, ip administered once daily for consecutive 5 days by H and E staining microscopic analysis; assay type: functional, organism-based; settings: time 5.0 day
[35] = Genotoxicity in C57BL/6 mouse xenografted with mouse B16-F10 cells assessed as micronucleated polychromatic erythrocytes frequency in bone marrow cells at 20 mg/kg, sc for consecutive 5 days (reference value: 10.00 +/-2.00); assay type: toxicity, organism-based; settings: in vivo, 120 h, time 5 day
[36] = Genotoxicity in C57BL/6 mouse xenografted with mouse B16-F10 cells assessed as ratio of polychromatic erythrocytes to total erythrocytes in bone marrow cells at 40 mg/kg, po for consecutive 5 days (reference value: 0.90 +/-0.04); assay type: toxicity, organism-based; settings: in vivo, 120 h, time 5 day
[37] = Toxicity in C57BL/6 mouse xenografted with mouse B16-F10 cells assessed as change in lung weight at 20 to 40 mg/kg, ip administered once daily for consecutive 5 days relative to control; assay type: organism-based; settings: in vivo, 120 h, dose 20-40 mg/kg, time 5 day
[38] = Toxicity in C57BL/6 mouse xenografted with mouse B16-F10 cells assessed as splenomegaly at 20 mg/kg, ip administered once daily for consecutive 5 days; assay type: organism-based; settings: in vivo, 120 h, time 5 day
B16-F10 [39] = assay: Antitumor activity against mouse B16-F10 cells bearing C57BL/6 mouse assessed as reduction in number of mitotic figures at 20 mg/kg, po administered once daily for consecutive 5 days in presence of cisplatin by H and E staining microscopic analysis; assay type: functional, organism-based; settings: time 5.0 day
B16-F10 [40] = assay: Antitumor activity against mouse B16-F10 cells bearing C57BL/6 mouse assessed as reduction in tumor weight at 20 mg/kg, po administered once daily for consecutive 5 days in presence of cisplatin relative to control; assay type: functional; parameters: scale not given: the % may be the effect or the level left; settings: time 5 day

In the case of C=C[C@](C)(O)CC[C@H]1C(=C)CC[C@H]2C(C)(C)CCC[C@]12C, the Activity [1] is reported as 4.33, the Activity [2] is reported as “Non-Toxic” and the Activity [3] is reported as “Toxic”. For the same compound, the Activity [4] was “Non-Toxic”, the Activity [5] was “Non-Toxic” and the Activity [6] was “Toxic”. The Ratio [7] was 0.85, the Activity [8] was “Non-Toxic” and the Activity [9] was “Non-Toxic”. For the same compound, the Activity [10] was “Non-Toxic”, the Activity [11] was 8 and the Ratio [12] was 0.85. For the same compound, the Activity [13] was “Toxic”, the Activity [14] was “Non-Toxic” and the Activity [15] was “Toxic”. For the same compound, the Activity [16] was 7.33, the Activity [17] was “Non-Toxic” and the Ratio [18] was 0.92. For the same compound, the Activity [19] was “Non-Toxic”, the Activity (B16-F10 [20]) was 38.8% and the Activity [21] was 6. The Activity [22] was “Non-Toxic”, the Activity [23] was “Non-Toxic” and the Activity [24] was 5.67. For the same compound, the Activity [25] was “Toxic”, the Activity (B16-F10 [26]) was 9.3% and the Activity (B16-F10 [27]) was 48.5%. For the same compound, the Activity [28] was “Non-Toxic”, the Activity (B16-F10 [29]) was 64.9% and the Activity [30] was “Non-Toxic”. For the same compound, the Activity (B16-F10 [31]) was 62.4%, the Ratio [32] was 0.83 and the Ratio [33] was 0.82. The Activity (B16-F10 [34]) was “Active”, the Activity [35] was 6 and the Ratio [36] was 0.9. The Activity [37] was “Non-Toxic”, the Activity [38] was “Toxic” and the Activity (B16-F10 [39]) was “Active”. It also gave an Activity (B16-F10 [40]) of 86.7%.
